Assay results as given in patent US5036008A, “Antitumor antibiotic BU-3285T” (Bristol-Myers Company, priority 1990, dated 1991).
≈ marks a conversion by molar mass, not a printed value. Entries after “also recorded” stand apart in the source; their conditions may differ.

What was measured:
[1] = system: B16-F10 (murine melanoma) cells; assay: In vitro cytotoxicity (Table 14); type: cell-based; conditions: Mus musculus, B16-F10, 72 h
Procedure: (§1) B16-F10 (murine melanoma), HCT-116 (human colon carcinoma), A549 (human lung carcinoma) and A549/VP29 (an etoposide-resistant subline of A549) were grown in Eagle's MEM (Nissui) supplemented with FCS (fetal calf serum, 10%) and non-essential amino acids (B16-F10), or in McCoy's 5A medium (Gibco) with FCS (10%), essential and non-essential amino acids, vitamins and antibiotics (HCT-116 and both of A549) at 37° C. under a humidified atmosphere in a 5% CO2 incubator. Exponentially growing B16-F10, HCT-116 and A549 cells were harvested, counted and suspended in the culture medium at 1.5×10^4, 3×10^4 and 3×10^4 cells/ml, respectively. After planting 180 μl of cell suspension into wells of a 96-well microtiter plate on day 0, the test materials (20 μl) were added on day 1 and the plates were incubated for 72 hours. The cytotoxic activity was colorimetrically determined at 540 nm after staining viable cells with neutral red solution.

fungi = assay: In vitro antifungal activity, overall statement; conditions: various fungi
Procedure: (§2) In vitro antifungal activity was determined against various fungi by the serial agar dilution method. Sabouraud dextrose agar (pH 7.0) was used for the experiment. The inoculum size was adjusted to 10^6 CFU/ml. After incubation at 28° C. for 40 hours, the minimum inhibitory concentration (MIC) was examined.

A. flavus FA21436 = assay: In vitro antifungal activity, serial agar dilution; conditions: Aspergillus flavus, FA21436, 40 h, pH 7
Procedure: as §2

[2] = system: murine and human tumor cell lines; assay: In vitro cytotoxicity, overall statement
Procedure: After planting 180 μl of cell suspension into wells of a 96-well microtiter plate on day 0, the test materials (20 μl) were added on day 1 and the plates were incubated for 72 hours. The cytotoxic activity was colorimetrically determined at 540 nm after staining viable cells with neutral red solution.

[3] = system: DNA biosynthesis in L1210 leukemia cells; assay: Inhibition of macromolecule biosynthesis, DNA (Table 15); type: cell-based, murine; conditions: at 100 μg/ml, the highest concentration tested
Procedure: Inhibitory effects of the above compounds on macromolecule (DNA, RNA and protein) biosynthesis were determined in cultured L1210 murine leukemia cells. The cells (5×10^5 cells/ml) were incubated with the test materials at 37° C. for 15 minutes and then further incubated for 60 minutes after the addition of labeled precursor, ^3 H-thymidine, ^14 C-uridine or ^3 H-leucine into the cultured mixture. After washing with chilled 5% trichloroacetic acid solution, the radioactivity incorporated into the acid-insoluble fraction of the cells was determined with a liquid scintillation counter.

[4] = system: A549 (human lung carcinoma) cells; assay: In vitro cytotoxicity (Table 14); type: cell-based; conditions: A549, 72 h
Procedure: as §1

P388 leukemia = assay: In vivo antitumor activity against P388 leukemia (Table 8); conditions: for Body wt. change on day 4 / MST (median survival time) / T/C: Q1D × 3
[5] = system: HCT-116 (human colon carcinoma) cells; assay: In vitro cytotoxicity (Table 14); type: cell-based; conditions: HCT-116, 72 h
Procedure: as §1

Solubility = type: physicochemical
A. fumigatus IAM2034 = assay: microbe, parasite or virus in culture; conditions: Aspergillus fumigatus, IAM2034, 40 h, pH 7
Procedure: as §2

[6] = system: DNA biosynthesis in L1210 leukemia cells; assay: Inhibition of macromolecule biosynthesis, DNA (Table 7); type: cell-based, murine
Procedure: Inhibitory effects of BU-3285T on macromolecule biosynthesis (DNA, RNA and protein) were determined in cultured L1210 murine leukemia cells. The cells (5×10^5 cells/ml) were incubated with the compound at 37° C. for 15 minutes and then further incubated for 60 minutes after the addition of labelled precursor, ^3 H-thymidine, ^14 C-uridine or ^3 H-leucine into the cultured mixture. After washing with chilled 5% trichloroacetic acid solution, the radioactivity incorporated into the acid-insoluble fraction of the cells was determined by a liquid scintillation counter.

## CCCCC/C=C/C=C\C=C/C(O)C(C)C(C/C=C/C1OC(=O)C=CC1O)OS(=O)(=O)O (stereo not shown) [BU-3285T]
[1]
  IC50: 38 µg/mL (≈ 80.8 µM)
fungi
  antifungal activity in vitro: exhibits in vitro antifungal activity
fungi; listed as BU-3285 T
  antifungal activity in vitro: relatively good and broad antifungal profile
A. flavus FA21436
  MIC: 50 µg/mL (≈ 106 µM)
[2]; murine and human tumor cell lines
  cytotoxicity in vitro: exhibits in vitro antifungal activity and cytotoxicity; also recorded: quite active
[2]; range over cell lines of Table 14
  IC50 values against the murine and human tumor cell lines (range): 1.9 to 38 µg/mL
[3]
  inhibitory effect on DNA synthesis: no significant inhibitory effect
[4]
  IC50: 4.1 µg/mL (≈ 8.71 µM)
P388 leukemia; 0.1 mg/kg/day ip
  Body wt. change on day 4: +1.5 g
  MST (median survival time): 12.0 days
P388 leukemia; 0.1 mg/kg/day ip, significant if T/C ≥ 125%
  T/C: 120%
P388 leukemia; 0.3 mg/kg/day ip
  Body wt. change on day 4: +1.0 g
  MST (median survival time): 13.0 days
P388 leukemia; 0.3 mg/kg/day ip, *2 significant, T/C ≥ 125%
  T/C: 130%
P388 leukemia; 1 mg/kg/day ip
  Body wt. change on day 4: +1.0 g
  MST (median survival time): 14.0 days
P388 leukemia; 1 mg/kg/day ip, *2 significant, T/C ≥ 125%
  T/C: 140%
P388 leukemia; 3 mg/kg/day ip
  Body wt. change on day 4: +1.5 g
  MST (median survival time): 15.0 days
P388 leukemia; 3 mg/kg/day ip, *2 significant, T/C ≥ 125%
  T/C: 150%
P388 leukemia; 10 mg/kg/day ip
  Body wt. change on day 4: 0.0 g
  MST (median survival time): 16.0 days
P388 leukemia; 10 mg/kg/day ip, *2 significant, T/C ≥ 125%
  T/C: 160%
P388 leukemia; P388, in terms of minimum effective dose
  activity compared with mitomycin C: comparable
P388 leukemia; P388 leukemia in mice
  in vivo antitumor activity: potent in vivo inhibitory activity; also recorded: good antitumor activity
[5]
  IC50: 1.9 µg/mL (≈ 4.04 µM)
Solubility; acetone
  solubility in acetone: slightly soluble
Solubility; chloroform
  solubility in chloroform: insoluble
Solubility; dimethyl sulfoxide
  solubility in dimethyl sulfoxide: soluble
Solubility; ethanol
  solubility in ethanol: soluble
Solubility; ethyl acetate
  solubility in ethyl acetate: slightly soluble
Solubility; methanol
  solubility in methanol: soluble
Solubility; n-hexane
  solubility in n-hexane: insoluble
Solubility; water
  solubility in water: soluble
A. fumigatus IAM2034
  MIC: > 100 µg/mL
[6]; Mus musculus, L1210, 3H-thymidine, ^14 C-uridine or 3H-leucine precursor, 15 min + 60 min, 37° C., read-out: IC50, DNA synthesis
  IC50: > 100 µg/mL
[6]; at 100 μg/ml, the highest concentration tested
  inhibitory effect on DNA synthesis: no significant inhibitory effect
